± gives the expanded uncertainty stated by the source.
Experiment: xn = mol fraction of the nth substance listed
Settings: 101 kPa, Liquid; for speed of sound: Sing-around technique in a fixed-path interferometer; for viscosity: Capillary tube (Ostwald / Ubbelohde) method

NCCN [ethane-1,2-diamine] + CC(C)O
speed of sound (293.15 K, x1 = 0.0557): 1187.2 ± 0.9 m/s
speed of sound (293.15 K, x1 = 0.1036): 1213.8 ± 0.9 m/s
speed of sound (293.15 K, x1 = 0.156): 1241.5 ± 0.9 m/s
speed of sound (293.15 K, x1 = 0.2011): 1265.8 ± 1 m/s
speed of sound (293.15 K, x1 = 0.2548): 1295.1 ± 1 m/s
speed of sound (293.15 K, x1 = 0.3018): 1320.2 ± 1 m/s
speed of sound (293.15 K, x1 = 0.3892): 1366.4 ± 1.1 m/s
speed of sound (293.15 K, x1 = 0.5109): 1430.5 ± 1.1 m/s
speed of sound (293.15 K, x1 = 0.605): 1478.9 ± 1.2 m/s
speed of sound (293.15 K, x1 = 0.6988): 1530.6 ± 1.2 m/s
speed of sound (293.15 K, x1 = 0.7969): 1584.3 ± 1.3 m/s
speed of sound (293.15 K, x1 = 0.8369): 1605.3 ± 1.3 m/s
speed of sound (293.15 K, x1 = 0.8931): 1635.6 ± 1.3 m/s
speed of sound (293.15 K, x1 = 0.9409): 1662.9 ± 1.3 m/s
mass density (293.15 K, x1 = 0.0557): 793.696 ± 0.48 kg/m3
mass density (293.15 K, x1 = 0.1036): 800.705 ± 0.48 kg/m3
mass density (293.15 K, x1 = 0.156): 807.902 ± 0.47 kg/m3
mass density (293.15 K, x1 = 0.2011): 813.922 ± 0.46 kg/m3
mass density (293.15 K, x1 = 0.2548): 820.862 ± 0.46 kg/m3
mass density (293.15 K, x1 = 0.3018): 826.514 ± 0.45 kg/m3
mass density (293.15 K, x1 = 0.3892): 836.546 ± 0.45 kg/m3
mass density (293.15 K, x1 = 0.5109): 849.474 ± 0.44 kg/m3
mass density (293.15 K, x1 = 0.605): 858.745 ± 0.44 kg/m3
mass density (293.15 K, x1 = 0.6988): 868.4 ± 0.44 kg/m3
mass density (293.15 K, x1 = 0.7969): 878.278 ± 0.44 kg/m3
mass density (293.15 K, x1 = 0.8369): 881.835 ± 0.44 kg/m3
mass density (293.15 K, x1 = 0.8931): 887.269 ± 0.44 kg/m3
mass density (293.15 K, x1 = 0.9409): 892.34 ± 0.44 kg/m3
viscosity (298.15 K, x1 = 0.0557): 2.034 ± 0.013 mPa·s
viscosity (298.15 K, x1 = 0.1036): 2.017 ± 0.013 mPa·s
viscosity (298.15 K, x1 = 0.156): 1.997 ± 0.013 mPa·s
viscosity (298.15 K, x1 = 0.2011): 1.978 ± 0.013 mPa·s
viscosity (298.15 K, x1 = 0.2548): 1.962 ± 0.013 mPa·s
viscosity (298.15 K, x1 = 0.3018): 1.936 ± 0.013 mPa·s
viscosity (298.15 K, x1 = 0.3892): 1.886 ± 0.013 mPa·s
viscosity (298.15 K, x1 = 0.5109): 1.796 ± 0.013 mPa·s
viscosity (298.15 K, x1 = 0.605): 1.725 ± 0.013 mPa·s
viscosity (298.15 K, x1 = 0.6988): 1.637 ± 0.013 mPa·s
viscosity (298.15 K, x1 = 0.7969): 1.543 ± 0.012 mPa·s
viscosity (298.15 K, x1 = 0.8369): 1.511 ± 0.012 mPa·s
viscosity (298.15 K, x1 = 0.8931): 1.469 ± 0.012 mPa·s
viscosity (298.15 K, x1 = 0.9409): 1.438 ± 0.012 mPa·s
speed of sound (298.15 K, x1 = 0.0557): 1169.4 ± 0.9 m/s
speed of sound (298.15 K, x1 = 0.1036): 1195.9 ± 0.9 m/s
speed of sound (298.15 K, x1 = 0.156): 1223.4 ± 0.9 m/s
speed of sound (298.15 K, x1 = 0.2011): 1247.6 ± 1 m/s
speed of sound (298.15 K, x1 = 0.2548): 1276.6 ± 1 m/s
speed of sound (298.15 K, x1 = 0.3018): 1301.6 ± 1 m/s
speed of sound (298.15 K, x1 = 0.3892): 1347.5 ± 1 m/s
speed of sound (298.15 K, x1 = 0.5109): 1410.9 ± 1.1 m/s
speed of sound (298.15 K, x1 = 0.605): 1458.9 ± 1.2 m/s
speed of sound (298.15 K, x1 = 0.6988): 1510 ± 1.2 m/s
speed of sound (298.15 K, x1 = 0.7969): 1563.2 ± 1.3 m/s
speed of sound (298.15 K, x1 = 0.8369): 1583.7 ± 1.3 m/s
speed of sound (298.15 K, x1 = 0.8931): 1613.9 ± 1.3 m/s
speed of sound (298.15 K, x1 = 0.9409): 1640.7 ± 1.3 m/s
mass density (298.15 K, x1 = 0.0557): 789.425 ± 0.49 kg/m3
mass density (298.15 K, x1 = 0.1036): 796.388 ± 0.48 kg/m3
mass density (298.15 K, x1 = 0.156): 803.523 ± 0.48 kg/m3
mass density (298.15 K, x1 = 0.2011): 809.506 ± 0.47 kg/m3
mass density (298.15 K, x1 = 0.2548): 816.397 ± 0.47 kg/m3
mass density (298.15 K, x1 = 0.3018): 822.019 ± 0.46 kg/m3
mass density (298.15 K, x1 = 0.3892): 832.023 ± 0.46 kg/m3
mass density (298.15 K, x1 = 0.5109): 844.925 ± 0.45 kg/m3
mass density (298.15 K, x1 = 0.605): 854.173 ± 0.45 kg/m3
mass density (298.15 K, x1 = 0.6988): 863.796 ± 0.45 kg/m3
mass density (298.15 K, x1 = 0.7969): 873.662 ± 0.45 kg/m3
mass density (298.15 K, x1 = 0.8369): 877.194 ± 0.45 kg/m3
mass density (298.15 K, x1 = 0.8931): 882.613 ± 0.45 kg/m3
mass density (298.15 K, x1 = 0.9409): 887.669 ± 0.45 kg/m3
viscosity (303.15 K, x1 = 0.0557): 1.761 ± 0.012 mPa·s
viscosity (303.15 K, x1 = 0.1036): 1.746 ± 0.012 mPa·s
viscosity (303.15 K, x1 = 0.156): 1.733 ± 0.012 mPa·s
viscosity (303.15 K, x1 = 0.2011): 1.718 ± 0.012 mPa·s
viscosity (303.15 K, x1 = 0.2548): 1.698 ± 0.012 mPa·s
viscosity (303.15 K, x1 = 0.3018): 1.675 ± 0.012 mPa·s
viscosity (303.15 K, x1 = 0.3892): 1.629 ± 0.012 mPa·s
viscosity (303.15 K, x1 = 0.5109): 1.558 ± 0.012 mPa·s
viscosity (303.15 K, x1 = 0.605): 1.496 ± 0.012 mPa·s
viscosity (303.15 K, x1 = 0.6988): 1.429 ± 0.012 mPa·s
viscosity (303.15 K, x1 = 0.7969): 1.357 ± 0.011 mPa·s
viscosity (303.15 K, x1 = 0.8369): 1.331 ± 0.011 mPa·s
viscosity (303.15 K, x1 = 0.8931): 1.298 ± 0.011 mPa·s
viscosity (303.15 K, x1 = 0.9409): 1.271 ± 0.011 mPa·s
speed of sound (303.15 K, x1 = 0.0557): 1151.7 ± 0.9 m/s
speed of sound (303.15 K, x1 = 0.1036): 1178 ± 0.9 m/s
speed of sound (303.15 K, x1 = 0.156): 1205.3 ± 0.9 m/s
speed of sound (303.15 K, x1 = 0.2011): 1229.4 ± 1 m/s
speed of sound (303.15 K, x1 = 0.2548): 1258.2 ± 1 m/s
speed of sound (303.15 K, x1 = 0.3018): 1283 ± 1 m/s
speed of sound (303.15 K, x1 = 0.3892): 1328.5 ± 1 m/s
